Assay results reported in patent US20250221988A1 (Cullgen (Shanghai), Inc., priority 2022, published 2025).
Like-named read-outs stand apart in the source and are kept apart here.

What was measured:
MV4;11 cells = assay: Cell viability assay (CellTiter-Glo) in MV4;11 cells; assay type: cell-based; details: MV4;11 cells, three days, read-out: MV4
Summary of the method: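 After three days' exposure to 3-fold serial compound dilutions (8 or 12 points), viability of cells seeded at 5000/well is read by CellTiter-Glo. Runs were done alone or combined with gilteritinib at 10 nM (MV4;11) or 20 nM (MOLM-13); IC50 from nonlinear regression.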

MOLM-13 cells = assay: Cell viability assay (CellTiter-Glo) in MOLM-13 cells; assay type: cell-based; details: MOLM-13 cells, three days
[1] = Homo sapiens, MV4-11, 72 h, compound alone, 11 IC50
[2] = with 10 nM gilteritinib, 11 IC50 (nM) + 10 nM Gil
[3] = Homo sapiens, 72 h, compound alone, read-out: MOLM-13 IC50
[4] = with gilteritinib, read-out: MOLM-13 IC50 (nM) + 10 nM Gil

Cn1cc(Nc2cn([C@H]3C[C@H](CNc4ccc5c(c4)C(=O)N(C4CCC(=O)NC4=O)C5=O)C3)nc2C2CC2)cn1 (stereo partly drawn) [GS-773, 5-(((Trans-3-(3-cyclopropyl-4-((1-methyl-1H-pyrazol-4-yl)amino)-1H-pyrazol-1-yl)cyclobutyl)methyl)amino)-2-(2,6-dioxopiperidin-3-yl)isoindoline-1,3-dione]
IC50 (MV4;11 cells; [1]): < 10 nM | IC50 (MV4;11 cells; [2]): < 10 nM | IC50 (MOLM-13 cells; [3]): 10 to 100 nM | IC50 (MOLM-13 cells; [4]): < 10 nM

Cc1cccc(-c2cn(C3CC4(CC(C(=O)NCc5ccc6c(c5)C(=O)N(C5CCC(=O)NC5=O)C6=O)C4)C3)nc2C2CC2)n1 (stereo not drawn) [GS-774, 6-(3-Cyclopropyl-4-(6-methylpyridin-2-yl)-1H-pyrazol-1-yl)-N-((2-(2,6-dioxopiperidin-3-yl)-1,3-dioxoisoindolin-5-yl)methyl)spiro[3.3]heptane-2-carboxamide]
IC50 (MV4;11 cells; [1]): 100 to 1000 nM | IC50 (MV4;11 cells; [2]): 10 to 100 nM | IC50 (MOLM-13 cells; [3]): > 1000 nM | IC50 (MOLM-13 cells; [4]): 100 to 1000 nM

Cc1cccc(-c2cn(C3CC4(CC(CNc5ccc6c(c5)C(=O)N(C5CCC(=O)NC5=O)C6=O)C4)C3)nc2C2CC2)n1 (stereo not drawn) [GS-775]
IC50 (MV4;11 cells; [1]): 100 to 1000 nM | IC50 (MV4;11 cells; [2]): 100 to 1000 nM | IC50 (MOLM-13 cells; [3]): > 1000 nM | IC50 (MOLM-13 cells; [4]): 100 to 1000 nM

N[C@H]1C[C@H](n2ncc3cnc(-c4cn([C@H]5C[C@H](CNc6ccc7c(c6)C(=O)N(C6CCC(=O)NC6=O)C7=O)C5)nc4C4CC4)cc32)C1 (stereo partly drawn) [GS-776, 5-(((Trans-3-(4-(1-(trans-3-aminocyclobutyl)-1H-pyrazolo[4,3-c]pyridin-6-yl)-3-cyclopropyl-1H-pyrazol-1-yl)cyclobutyl)methyl)amino)-2-(2,6-dioxopiperidin-3-yl)isoindoline-1,3-dione]
IC50 (MV4;11 cells; [1]): 10 to 100 nM | IC50 (MV4;11 cells; [2]): < 10 nM | IC50 (MOLM-13 cells; [3]): 10 to 100 nM | IC50 (MOLM-13 cells; [4]): < 10 nM

O=C1CCC(N2C(=O)c3ccc(NC[C@H]4C[C@H](n5cc(-n6ncc7cccnc76)c(C6CC6)n5)C4)cc3C2=O)C(=O)N1 (stereo partly drawn) [GS-777, 5-(((Trans-3-(3-cyclopropyl-4-(1H-pyrazolo[3,4-b]pyridin-1-yl)-1H-pyrazol-1-yl)cyclobutyl)methyl)amino)-2-(2,6-dioxopiperidin-3-yl)isoindoline-1,3-dione]
IC50 (MV4;11 cells; [1]): < 10 nM | IC50 (MV4;11 cells; [2]): < 10 nM | IC50 (MOLM-13 cells; [3]): 10 to 100 nM | IC50 (MOLM-13 cells; [4]): < 10 nM

N[C@H]1C[C@@H](n2ncc3cnc(-c4cn([C@H]5C[C@H](CNc6ccc7c(c6)C(=O)N(C6CCC(=O)NC6=O)C7=O)C5)nc4C4CC4)cc32)C1 (stereo partly drawn) [GS-778, 5-(((Trans-3-(4-(1-(cis-3-aminocyclobutyl)-1H-pyrazolo[4,3-c]pyridin-6-yl)-3-cyclopropyl-1H-pyrazol-1-yl)cyclobutyl)methyl)amino)-2-(2,6-dioxopiperidin-3-yl)isoindoline-1,3-dione]
IC50 (MV4;11 cells; [1]): 10 to 100 nM | IC50 (MV4;11 cells; [2]): < 10 nM | IC50 (MOLM-13 cells; [3]): 10 to 100 nM | IC50 (MOLM-13 cells; [4]): < 10 nM

O=C1CCC(N2C(=O)c3ccc(NC[C@H]4C[C@H](n5cc(-c6ccc7c(n6)C(O)CC7)c(C6CC6)n5)C4)cc3C2=O)C(=O)N1 (stereo partly drawn) [GS-780, 5-(((Trans-3-(3-cyclopropyl-4-(7-hydroxy-6,7-dihydro-5H-cyclopenta[b]pyridin-2-yl)-1H-pyrazol-1-yl)cyclobutyl)methyl)amino)-2-(2,6-dioxopiperidin-3-yl)isoindoline-1,3-dione]
IC50 (MV4;11 cells; [1]): 10 to 100 nM | IC50 (MV4;11 cells; [2]): < 10 nM | IC50 (MOLM-13 cells; [3]): 10 to 100 nM | IC50 (MOLM-13 cells; [4]): < 10 nM

Cn1ncc2cncc(-c3cn([C@H]4C[C@H](CNc5ccc6c(c5)C(=O)N(C5CCC(=O)NC5=O)C6=O)C4)nc3C3CC3)c21 (stereo partly drawn) [GS-781, 5-(((Trans-3-(3-cyclopropyl-4-(1-methyl-1H-pyrazolo[4,3-c]pyridin-7-yl)-1H-pyrazol-1-yl)cyclobutyl)methyl)amino)-2-(2,6-dioxopiperidin-3-yl)isoindoline-1,3-dione]
IC50 (MV4;11 cells; [1]): 10 to 100 nM | IC50 (MV4;11 cells; [2]): < 10 nM | IC50 (MOLM-13 cells; [3]): 100 to 1000 nM | IC50 (MOLM-13 cells; [4]): 10 to 100 nM

O=C1CCC(N2C(=O)c3ccc(NC[C@H]4C[C@H](n5cc(-c6cc7c(cn6)cnn7[C@H]6CC[C@@H](O)CC6)c(C6CC6)n5)C4)cc3C2=O)C(=O)N1 (stereo partly drawn) [GS-782]
IC50 (MV4;11 cells; [1]): < 10 nM | IC50 (MV4;11 cells; [2]): < 10 nM | IC50 (MOLM-13 cells; [3]): 10 to 100 nM | IC50 (MOLM-13 cells; [4]): < 10 nM
